Assay results as given in patent publication US20050255493A1, “Molecular targeting of the IGF-1 receptor” (priority 2002, published 2005).
“Also recorded” adds a separate entry of the source.

Assays:
[1] = system: Human EJ28 invasive bladder carcinoma cells; test: Survival and mitomycin-C sensitivity of EJ28 invasive bladder carcinoma cells; assay type: cell-based; settings: human bladder cancer cells
Procedure: FIG. 20 illustrates that IGF1R gene silencing inhibits survival and enhances chemosensitivity of invasive bladder cancer. Human EJ28 invasive bladder carcinoma cells were transfected with 200 nM TSS or control duplex. After 48 hr the cells were disaggregated and re-seeded. To measure survival, 2000 cells were seeded in 10 cm dishes. Survival in TSS-transfected cells was only 0.2% of that in control-treated cultures, p<0.001). For chemosensitivity testing, cells were re-seeded into 96-well plates. The following day cultures were treated with mitomycin-C at the indicated concentrations for 24 hours, after which the medium was changed. After a further 4 days, growth was measured by calorimetric assay (MTS assay).

IGF1R [2] = test: IGF1R Western blot in prostate cancer cells transfected with siRNA TSS; assay type: cell-based, human; settings: for IGF1R level, % of levels in cells treated with control duplex: 48 hours after transfection
Procedure: Prostate cancer cells were transfected with 200 nM siRNA TSS homologous to nt 166-186 of the IGF1R gene or inverted sequence control.
(§1) The human and murine cell lines used in this study were cultured in RPMI 1640 plus 10% FCS at 37° C. in a humidified atmosphere of 5% CO2. The cultures were negative when tested for Mycoplasma infection. Cultures were passaged the day before transfection to achieve 30-50% confluence the following day. Initial transfections of ASOs used 1-2.5 μg/ml Cytofectin (Glen Research, Sterling, Va.), according to the manufacturer's instructions. Latterly Oligofectamine (Life Sciences) has been used for all ASO and RNAi transfections. The method was as described (see manufacturer's instructions and www.dharmacon.com) with minor modifications. For transfection of monolayers seeded in 6 well plates, 5 μl phosphorothioate oligonucleotide or RNA duplex at 100× final concentration were mixed with 2501 serum-free Optimem (Gibco-BRL). In a separate tube 2 μl Oligofectamine was mixed with 68 μl Optimem. After 10 min incubation at room temperature the contents of the two tubes were mixed and incubated for a further 25 min at room temperature. Monolayers were washed with 1-2 ml Optimem. To the cells were added 175 μl Optimem followed by the 325 μl complexes. Volumes were scaled up by factors of 2.22 or 6.05 for transfection in 60 mm or 100 mm dishes respectively. Cultures were incubated at 37° C. for 4 hr, and then 50 μl FCS and 3.5 ml RPMI plus 5% FCS were added to each well. After 48 hr incubation effects on IGF1R and IR expression were determined by immunoblotting. Some transfected cultures were serum-starved overnight, divided into two aliquots and treated with 10 nM Long R3-IGF-I (GroPep, Adelaide) or diluent for 30 min at 37° C. prior to lysis.
(§2) IGF1R expression was assessed by immunoblotting as previously described (Macaulay et al 2001). After washing in ice-cold PBS, cells were lysed in 50 mM Hepes pH 7.5, 100 mM NaCl, 10 mM EDTA, 1% Triton-X-100, 4 mM sodium pyrophosphate, 2 mM sodium orthovanadate, 10 mM sodium fluoride, 1 mM PMSF, 2 μg/ml each leupeptin and aprotinin. Lysates were centrifuged for 15 minutes at 14,000 g, the protein concentration of supernatants was measured using BCA assay reagent (Pierce), and equivalent amounts of protein were separated on 7.5% SDS-PAGE gels and transferred to nitrocellulose. Target protein levels were assessed using antibodies to the β-subunit of the IGF1R or IR (Santa Cruz), phospho-Ser 473 Akt or total Akt (Cell Signalling, New England Biolabs) or β-tubulin (Sigma). Activated IGF1R was detected by immunoprecipitation for phosphotyrosine (P-Tyr-100, Cell Signaling Technology). Primary antibodies were detected with HRP-conjugated secondary antibodies (Dako), and ECL Plus (Amersham Pharmacia).

DU145 and PC3 cells = test: Radio- and chemosensitivity of prostate cancer cells after IGF1R gene silencing (clonogenic, change in IC50); assay type: cell-based, human; settings: 200 nM duplex (FIG. 19)
Procedure: FIG. 19 illustrates that IGF1R gene silencing enhances chemosensitivity of androgen-resistant prostate cancer. PC3 cells were transfected with 200 nM TSS (red line) or scrambled sequence control duplex (green). After 48 hr the cells were disaggregated and re-seeded in 10 cm dishes (4000 cells/dish). The following day the cultures were treated with mitoxantrone at the indicated concentrations for 24 hours, after which the medium was changed and cells were allowed to survive to form colonies (>50 cells). Dotted lines mark IC501 dose required to inhibit survival to 50% untreated level.
Furthermore, IGF1R gene silencing appeared to enhance prostate cancer radio- and chemo-sensitivity (FIG. 19). The alteration in sensitivity was calculated as change in IC50, the concentration of drug/irradiation required to reduce the colony count to 50% of that in untreated cultures, as follows: [formula]

IGF1R [3] = test: IGF1R level by immunoblotting in transfected MDA-231 cells; assay type: cell-based, human
Procedure: as §1, §2
The ASOs and RNAi duplexes were transfected into MDA-231 cells (human ER negative breast cancer) using Cytofectin or Oligofectamine, as described above. After 48 hr the cells were lysed, and IGF1R and IR levels were measured by immunoblotting. The intensity of the autoradiographic bands was quantified by densitometry, and IGF1R (or IR) levels were corrected for loading differences. The specific IGF1R or IR results are presented as % IGF1R (or IR) level of that in cells transfected with the same concentration of an appropriate control. This was a scrambled control oligonucleotide for ASOs, and an inverted RNA duplex for RNAi.

[4] = system: Human prostate cancer cells; test: Clonogenic survival of human prostate cancer cells transfected with siRNA TSS; assay type: cell-based; settings: all three prostate cancer cell lines (DU145, PC3, LNCaP), 200 nM
Procedure: FIG. 18 illustrates how IGF1R gene silencing inhibits survival of prostate cancer cells. Human prostate cancer cells were transfected with 200 nM TSS or control duplex. After 48 hr the cells were disaggregated and re-seeded in 10 cm dishes (2000 cells/dish). After 1-3 weeks incubation (depending on the cell line), visible colonies were stained and counted. Bars show mean±sem of triplicate dishes. **p<0.01, ***p<0.001 for comparison of survival in cultures treated with TSS versus control duplex.

IGF1R [5] = test: IGF1R levels by immunoblotting in B16 murine melanoma cells transfected with RNAi duplexes; assay type: cell-based; settings: 10 nM duplex, 48 hr
Procedure: The human and murine cell lines used in this study were cultured in RPMI 1640 plus 10% FCS at 37° C. in a humidified atmosphere of 5% CO2. The cultures were negative when tested for Mycoplasma infection. Cultures were passaged the day before transfection to achieve 30-50% confluence the following day. Initial transfections of ASOs used 1-2.5 μg/ml Cytofectin (Glen Research, Sterling, Va.), according to the manufacturer's instructions. Latterly Oligofectamine (Life Sciences) has been used for all ASO and RNAi transfections. The method was as described (see manufacturer's instructions and www.dharmacon.com) with minor modifications. […] After 48 hr incubation effects on IGF1R and IR expression were determined by immunoblotting. […]
IGF1R expression was assessed by immunoblotting as previously described (Macaulay et al 2001). […] Lysates were centrifuged for 15 minutes at 14,000 g, the protein concentration of supernatants was measured using BCA assay reagent (Pierce), and equivalent amounts of protein were separated on 7.5% SDS-PAGE gels and transferred to nitrocellulose. Target protein levels were assessed using antibodies to the β-subunit of the IGF1R or IR (Santa Cruz), phospho-Ser 473 Akt or total Akt (Cell Signalling, New England Biolabs) or β-tubulin (Sigma). Activated IGF1R was detected by immunoprecipitation for phosphotyrosine (P-Tyr-100, Cell Signaling Technology). […]

B16 melanoma cells = test: Growth in vivo of B16 melanoma cells transfected with RNA duplexes; settings: B16 cells transfected with 200 nM duplex on three consecutive days, flanks of C57BL mice
Procedure: FIG. 8 illustrates growth in vivo in C57BL mice of B16 melanoma cells transfected with RNA duplexes. B16 melanoma cells were transfected with 200 nM duplexes (RNA22 is R2, Inv22 is Inv2) or oligofectamine alone (OF) for three consecutive days. On the 4th day cells were injected into the flanks of C57BL mice, using 2.5×10^5 cells/mouse, using groups of 5 mice. Tumours were measured in 2 dimensions every 2-3 days. Tumour volumes were calculated as n(a×b^2)/6 where a is the larger and b the smaller dimension.
B16 cells were transfected with 200 nM RNA duplexes (RNA22=R2, 22Inv=Inv2) or oligofectamine alone (OF) for three consecutive days. On the 4th day cells were injected into the flanks of C57BL mice, using 2.5×10^5 cells/mouse, using groups of 5 mice. Tumours were measured in 2 dimensions every 2-3 days. Tumour volumes were calculated as n(a×b^2)/6 where a is the larger and b the smaller dimension.

IGF-I signaling to Akt = test: IGF signalling: phosphorylation of IGF1R β-subunit and Akt after IGF-I in transfected MDA-MB-231 cells; assay type: cell-based, human; settings: MDA-MB-231, 100 nM duplexes, 50 nM IGF-1 for 30 min
Procedure: as §2
MDA-MB-231 cells transfected with 100 nM RNA duplexes were serum-starved overnight and treated with 50 nM IGF-1 or diluent for 30 min. The cells were lysed and lysates were analysed by immunoblotting for IGF1R, phospho-Ser473-Akt and total Akt, and by phosphotyrosine immunoprecipitation and IGF1R immunoblotting to detect phosphorylated IGF1R β-subunit (see FIG. 7).

IGF1R [6] = test: IGF1R levels by immunoblotting in human tumour cell lines transfected with RNAi duplexes; assay type: cell-based; settings: for IGF1R level as % of levels in cells transfected with inverted control duplex: 10 nM duplex, 48 hr
Procedure: as §1
as §2, with “Pharmacia). […]” for “Pharmacia).”
Tumour cells were transfected with 10 nM duplexes and IGF1R levels were measured after 48 hr. After correction for loading differences IGF1R levels in cells transfected with RNAi were expressed as % of levels in cells transfected with equivalent inverted control duplex.

[7] = system: UC101 human ovarian cancer cells; test: Tumorigenicity of UC101 ovarian cancer cells transfected with siRNA (xenografts); assay type: in vivo, female athymic (nu/nu mice); settings: UC101 cells transfected with 200 nM siRNA, nu/nu mice
Procedure: UC101 ovarian cancer cells were transfected with 200 nM siRNA, mixed with irradiated NIH-3T3 cells and inoculated into the flanks of female athymic (nu/nu mice).
Tumorigenicity testing was conducted using UC101 human ovarian cancer cells transfected with 200 nM siRNA. After 48 hr the cells were inoculated into the flanks of female athymic (nu/nu mice), using 5×10^6 tumour cells mixed with 5×10^6 irradiated NIH-3T3 cells per mouse. Tumours were measured and volumes calculated as described (Macaulay et al., Oncogene 20: 2029-40, 2001). All procedures were performed in accordance with the Home Office Scientific Procedures Act 1986, and with the approval of the Animal Ethics Committee of Cancer Research UK.

Row | Substance | Clonogenic survival [1] | Sensitivity to mitomycin-C ([1]; MTS assay) | IGF1R level, % of levels in cells treated with control duplex (IGF1R [2]; DU145, 200 nM) [%] | IGF1R level, % of levels in cells treated with control duplex (IGF1R [2]; LNCaP, 200 nM) [%] | IGF1R level, % of levels in cells treated with control duplex (IGF1R [2]; PC3, 200 nM) [%] | Inhibition of IGF1R expression (IGF1R [2]; all three prostate cancer cell lines (DU145, PC3, LNCaP)) | Change in mitoxantrone IC50 (DU145 and PC3 cells) [fold] | IGF1R gene silencing (IGF1R [3]; MDA-MB-231 human breast carcinoma cells) | Inhibition of clonogenic survival [4] | Inhibition of IGF1R expression on immunoblot (IGF1R [3]; MDA-231 breast cancer cells, 10-200 nM) | IGF1R level as % of levels in cells transfected with inverted control duplex (IGF1R [5]) [%] | Tumour growth in vivo compared with inverted control RNA duplex (B16 melanoma cells) | IGF-I signaling to Akt / IGF-1-induced phosphorylation (IGF-I signaling to Akt) | IGF1R level as % of levels in cells transfected with inverted control duplex (IGF1R [6]; A549 human non-small cell lung) [%] | IGF1R level as % of levels in cells transfected with inverted control duplex (IGF1R [6]; DU145 human prostate cancer) [%] | IGF1R level as % of levels in cells transfected with inverted control duplex (IGF1R [6]; ME human melanoma) [%] | Inhibition of IGF1R expression on immunoblot (IGF1R [6]; ME melanoma cells, 10-200 nM) | IGF1R downregulation compared between 21mer duplexes (IGF1R [3]; MDA-231 cells, 0.5, 5 and 50 nm (FIG. 5)) | Tumour development [7] | IGF1R downregulation (IGF1R [6]; 10 nM, human ME melanoma and A549 NSCLC)
1 | siRNA TSS: 21mer duplex homologous to nucleotides 166-186 of the IGF1R transcript, CGACUAUCAGCAGCUGAAGTT / TTGCUGAUAGUCGUCGACUUC, SEQ ID NO:37 (CGACUAUCAGCAGCUGAAGNN; second strand not cited, chemistry not fully specified) | profound inhibition of clonogenic survival | enhancement of sensitivity to mitomycin-C | 18 | 17 | 22 | significant inhibition | −2 | induce IGF1R gene silencing | significant inhibition |  |  |  |  |  |  |  |  |  |  | 
2 | R2: RNAi duplex GCCGAUGUGUGAGAAGACCTT / TTCGGCUACACACUCUUCUGG, SEQ ID NO:23 (sense GCCGAUGUGUGAGAAGACCNN; chemistry not fully specified; one strand is listed 3' to 5') |  |  |  |  |  |  |  |  |  | almost complete inhibition of IGF1R expression | 45 ± 4 | reduced growth rate in vivo | could not detect IGF-1-induced phosphorylation of the IGF1R β-subunit or of Akt | 22 ± 2 | 34 ± 13 | 53 ± 3 | almost complete inhibition of IGF1R expression |  |  | 
3 | R6: RNAi duplex CUACAUUGUGGGGAAUAAGTT / TTGAUGUAACACCCCUUAUUC, SEQ ID NO:34 (CUACAUUGUGGGGAAUAAGNN; second strand not cited, chemistry not fully specified) |  |  |  |  |  |  |  |  |  |  | 72 ± 14 |  | not sufficient to abolish IGF-I signaling to Akt | 102 ± 16 | 74 ± 8 | 104 ± 5 |  | significantly less potent; also recorded: less than the effect of the mutant duplex Mut2 | rapidly growing tumours | essentially inactive
